According to ChEMBL document CHEMBL4368926, “Arylpyridines, arylpyrimidines and related compounds as potential modulator agents of the VEGF, hTERT and c-Myc oncogenes” (Bioorg Med Chem, 2019):

What was measured:
MCF7 = assay: Cytotoxicity against human MCF7 cells assessed as decrease in cell viability after 2 days by MTT assay; type: functional, cell-based; details: MCF7, 48 h
HT-29 [1] = assay: Cytotoxicity against human HT-29 cells assessed as decrease in cell viability after 2 days by MTT assay; type: functional, cell-based; details: HT-29, 48 h
HEK293 = assay: Cytotoxicity against HEK293 cells assessed as decrease in cell viability after 2 days by MTT assay; type: ADME, cell-based; details: Homo sapiens, HEK293, 48 h
[2] = Selectivity index, ratio of IC50 for HEK293 cells to IC50 for human MCF7 cells; details: HEK293 cells versus MCF7 cells
HT-29 [3] = assay: Down-regulation of c-Myc mRNA expression in human HT-29 cells assessed as c-Myc mRNA level at 160 uM after 48 hrs by RT-qPCR analysis (reference value: 100%); type: functional
HT-29 [4] = assay: Down-regulation of VEGFRA mRNA expression in human HT-29 cells assessed as VEGFRA mRNA level at 160 uM after 48 hrs by RT-qPCR analysis (reference value: 100%); type: functional
[5] = Selectivity index, ratio of IC50 for HEK293 cells to IC50 for human HT-29 cells; type: toxicity; details: HEK293 cells versus HT-29 cells, read-out: Ratio IC50
HT-29 [6] = assay: Down-regulation of VEGFA protein expression in human HT-29 cells assessed as VEGFA protein level at 160 uM after 48 hrs by ELISA (reference value: 100%); type: functional
HT-29 [7] = assay: Down-regulation of hTERT mRNA expression in human HT-29 cells assessed as hTERT mRNA level at 160 uM after 48 hrs by RT-qPCR analysis (reference value: 100%); type: functional
HT-29 [8] = assay: Down-regulation of c-Myc protein expression in human HT-29 cells assessed as c-Myc protein level at 160 uM after 48 hrs by ELISA (reference value: 100%); type: functional
HT-29 [9] = assay: Down-regulation of c-Myc mRNA expression in human HT-29 cells assessed as c-Myc mRNA level at 40 uM after 48 hrs by RT-qPCR analysis (reference value: 100%); type: functional
HT-29 [10] = assay: Down-regulation of VEGFA protein expression in human HT-29 cells assessed as VEGFA protein level at 40 uM after 48 hrs by ELISA (reference value: 100%); type: functional
HT-29 [11] = assay: Down-regulation of c-Myc protein expression in human HT-29 cells assessed as c-Myc protein level at 40 uM after 48 hrs by ELISA (reference value: 100%); type: functional
HT-29 [12] = assay: Down-regulation of VEGFRA mRNA expression in human HT-29 cells assessed as VEGFRA mRNA level at 40 uM after 48 hrs by RT-qPCR analysis (reference value: 100%); type: functional
HT-29 [13] = assay: Down-regulation of hTERT mRNA expression in human HT-29 cells assessed as hTERT mRNA level at 40 uM after 48 hrs by RT-qPCR analysis (reference value: 100%); type: functional
HT-29 [14] = assay: Down-regulation of hTERT mRNA expression in human HT-29 cells assessed as hTERT mRNA level at 80 uM after 48 hrs by RT-qPCR analysis (reference value: 100%); type: functional
HT-29 [15] = assay: Down-regulation of VEGFA protein expression in human HT-29 cells assessed as VEGFA protein level at 80 uM after 48 hrs by ELISA (reference value: 100%); type: functional
HT-29 [16] = assay: Down-regulation of c-Myc protein expression in human HT-29 cells assessed as c-Myc protein level at 80 uM after 48 hrs by ELISA (reference value: 100%); type: functional
HT-29 [17] = assay: Down-regulation of c-Myc mRNA expression in human HT-29 cells assessed as c-Myc mRNA level at 80 uM after 48 hrs by RT-qPCR analysis (reference value: 100%); type: functional
HT-29 [18] = assay: Down-regulation of VEGFRA mRNA expression in human HT-29 cells assessed as VEGFRA mRNA level at 80 uM after 48 hrs by RT-qPCR analysis (reference value: 100%); type: functional
HT-29 [19] = assay: Down-regulation of c-Myc protein expression in human HT-29 cells assessed as c-Myc protein level at 100 uM after 48 hrs by ELISA (reference value: 100%); type: functional
HT-29 [20] = assay: Down-regulation of VEGFRA mRNA expression in human HT-29 cells assessed as VEGFRA mRNA level at 100 uM after 48 hrs by RT-qPCR analysis (reference value: 100%); type: functional
HT-29 [21] = assay: Down-regulation of hTERT mRNA expression in human HT-29 cells assessed as hTERT mRNA level at 100 uM after 48 hrs by RT-qPCR analysis (reference value: 100%); type: functional
HT-29 [22] = assay: Down-regulation of VEGFA protein expression in human HT-29 cells assessed as VEGFA protein level at 100 uM after 48 hrs by ELISA (reference value: 100%); type: functional
HT-29 [23] = assay: Down-regulation of c-Myc mRNA expression in human HT-29 cells assessed as c-Myc mRNA level at 100 uM after 48 hrs by RT-qPCR analysis (reference value: 100%); type: functional
HT-29 [24] = assay: Down-regulation of VEGFRA mRNA expression in human HT-29 cells assessed as VEGFRA mRNA level at 20 uM after 48 hrs by RT-qPCR analysis (reference value: 100%); type: functional
HT-29 [25] = assay: Down-regulation of c-Myc protein expression in human HT-29 cells assessed as c-Myc protein level at 20 uM after 48 hrs by ELISA (reference value: 100%); type: functional
HT-29 [26] = assay: Down-regulation of VEGFA protein expression in human HT-29 cells assessed as VEGFA protein level at 20 uM after 48 hrs by ELISA (reference value: 100%); type: functional
HT-29 [27] = assay: Down-regulation of hTERT mRNA expression in human HT-29 cells assessed as hTERT mRNA level at 20 uM after 48 hrs by RT-qPCR analysis (reference value: 100%); type: functional
HT-29 [28] = assay: Down-regulation of c-Myc mRNA expression in human HT-29 cells assessed as c-Myc mRNA level at 20 uM after 48 hrs by RT-qPCR analysis (reference value: 100%); type: functional

## c1ccc(-c2cncnc2)cc1
MCF7
  IC50: 7 µM
HT-29 [1]
  IC50: > 400 µM
HEK293
  IC50: > 400 µM
[2]
  selectivity ratio: > 50

## COc1ccc(N2CCOCC2)cc1
HT-29 [3]
  Activity: 96%
MCF7
  IC50: 73 µM
HT-29 [4]
  Activity: 66%
HT-29 [1]
  IC50: 180 µM
[5]
  selectivity ratio: 3
HEK293
  IC50: > 400 µM
HT-29 [6]
  Activity: 64%
HT-29 [7]
  Activity: 63%
HT-29 [8]
  Activity: 100%
[2]
  selectivity ratio: 7

## COc1ccc(-c2cccnc2)cc1OC
MCF7
  IC50: 223 µM
HT-29 [1]
  IC50: > 400 µM
HEK293
  IC50: > 400 µM
[2]
  selectivity ratio: > 2

## c1ccc(N2CCOCC2)cc1
HT-29 [3]
  Activity: 67%
MCF7
  IC50: 120 µM
HT-29 [4]
  Activity: 79%
HT-29 [1]
  IC50: 240 µM
[5]
  selectivity ratio: 3
HEK293
  IC50: > 400 µM
HT-29 [6]
  Activity: 79%
HT-29 [7]
  Activity: 57%
HT-29 [8]
  Activity: 95%
[2]
  selectivity ratio: 5

## COc1ccc(-c2cccnc2)c(OC)c1
HT-29 [9]
  Activity: 39%
MCF7
  IC50: 210 µM
HT-29 [10]
  Activity: 52%
HT-29 [11]
  Activity: 56%
HT-29 [1]
  IC50: 59 µM
[5]
  selectivity ratio: 2
HEK293
  IC50: 100 µM
HT-29 [12]
  Activity: 32%
HT-29 [13]
  Activity: 28%
[2]
  selectivity ratio: < 1

## c1ccc(N2CCCCC2)cc1
HT-29 [14]
  Activity: 41%
MCF7
  IC50: 157 µM
HT-29 [15]
  Activity: 75%
HT-29 [16]
  Activity: 95%
HT-29 [1]
  IC50: 120 µM
[5]
  selectivity ratio: 5
HT-29 [17]
  Activity: 52%
HEK293
  IC50: > 400 µM
[2]
  selectivity ratio: 4
HT-29 [18]
  Activity: 89%

## Oc1ccccc1-c1ccccn1
HT-29 [19]
  Activity: 62%
HT-29 [20]
  Activity: 31%
MCF7
  IC50: 7 µM
HT-29 [1]
  IC50: 197 µM
[5]
  selectivity ratio: 2
HEK293
  IC50: 390 µM
HT-29 [21]
  Activity: 36%
HT-29 [22]
  Activity: 65%
[2]
  selectivity ratio: 57
HT-29 [23]
  Activity: 17%

## COc1ccc(-c2ccccn2)c(OC)c1
MCF7
  IC50: > 400 µM
HT-29 [1]
  IC50: > 400 µM
[5]
  selectivity ratio: < 1
HEK293
  IC50: 234 µM
[2]
  selectivity ratio: < 1

## COc1ccc(-c2ccccn2)cc1OC
HT-29 [9]
  Activity: 38%
MCF7
  IC50: 210 µM
HT-29 [10]
  Activity: 48%
HT-29 [11]
  Activity: 100%
HT-29 [1]
  IC50: 56 µM
[5]
  selectivity ratio: 3
HEK293
  IC50: 170 µM
HT-29 [13]
  Activity: 20%
HT-29 [24]
  Activity: 8%
[2]
  selectivity ratio: < 1

## Oc1ccccc1-c1ncccn1
MCF7
  IC50: 41 µM
HT-29 [1]
  IC50: > 400 µM
HEK293
  IC50: > 400 µM
[2]
  selectivity ratio: 14

## COc1ccc(-c2ncccn2)c(OC)c1
HT-29 [25]
  Activity: 63%
HT-29 [26]
  Activity: 48%
MCF7
  IC50: 130 µM
HT-29 [27]
  Activity: 85%
HT-29 [1]
  IC50: 30 µM
[5]
  selectivity ratio: < 1
HEK293
  IC50: 20 µM
HT-29 [28]
  Activity: 18%
HT-29 [24]
  Activity: 33%
[2]
  selectivity ratio: < 1

## COc1cccc(N2CCCC2)c1
MCF7
  IC50: 51 µM
HT-29 [1]
  IC50: 310 µM
[5]
  selectivity ratio: 3
HEK293
  IC50: 210 µM
[2]
  selectivity ratio: 3

## c1ccc(N2CCCC2)cc1
MCF7
  IC50: > 400 µM
HT-29 [1]
  IC50: > 400 µM
HEK293
  IC50: > 400 µM

## COc1ccc(N2CCCCC2)cc1
MCF7
  IC50: 71 µM
HT-29 [1]
  IC50: 120 µM
HEK293
  IC50: 100 µM
[2]
  selectivity ratio: 2

## COc1ccc(-c2cncnc2)cc1OC
MCF7
  IC50: 200 µM
HT-29 [1]
  IC50: > 400 µM
HEK293
  IC50: > 400 µM
[2]
  selectivity ratio: 2

## COc1ccc(-c2ncccn2)cc1OC
MCF7
  IC50: 48 µM
HT-29 [1]
  IC50: > 400 µM
HEK293
  IC50: > 400 µM
[2]
  selectivity ratio: > 9

## COc1ccc(-c2cncnc2)c(OC)c1
MCF7
  IC50: > 400 µM
HT-29 [1]
  IC50: > 400 µM
HEK293
  IC50: > 400 µM

## Oc1ccccc1-c1cncnc1
MCF7
  IC50: 61 µM
HT-29 [1]
  IC50: 380 µM
[5]
  selectivity ratio: < 1
HEK293
  IC50: 90 µM
[2]
  selectivity ratio: 2

## COc1ccc(N2CCCC2)cc1
HT-29 [19]
  Activity: 100%
HT-29 [20]
  Activity: 55%
MCF7
  IC50: > 400 µM
HT-29 [1]
  IC50: 210 µM
[5]
  selectivity ratio: 3
HEK293
  IC50: 350 µM
HT-29 [21]
  Activity: 35%
HT-29 [22]
  Activity: 79%
[2]
  selectivity ratio: 5
HT-29 [23]
  Activity: 79%

## COc1cccc(N2CCOCC2)c1
HT-29 [3]
  Activity: 62%
MCF7
  IC50: 100 µM
HT-29 [4]
  Activity: 54%
HT-29 [1]
  IC50: 160 µM
[5]
  selectivity ratio: 3
HEK293
  IC50: > 400 µM
HT-29 [6]
  Activity: 50%
HT-29 [7]
  Activity: 72%
HT-29 [8]
  Activity: 100%
[2]
  selectivity ratio: 5

## C=CCc1ccc(O)c(-c2ccc(O)c(CC=C)c2)c1 [HONOKIOL]
HT-29 [25]
  Activity: 53%
HT-29 [26]
  Activity: 55%
MCF7
  IC50: 35 µM
HT-29 [27]
  Activity: 45%
HT-29 [1]
  IC50: 25 µM
[5]
  selectivity ratio: 2
HEK293
  IC50: 40 µM
HT-29 [28]
  Activity: 45%
HT-29 [24]
  Activity: 36%
[2]
  selectivity ratio: 2
